Patent publication US10294202B2, “Pyrrolidinones as herbicides” (FMC Corporation, priority 2013, dated 2019)

What was measured:
pigweed = assay: Test A pre-/postemergence herbicide test; format: in vivo, Amaranthus retroflexus
In short: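 Scoring was visual, relative to untreated controls, on a 0–100 scale after about 10 greenhouse days. Preemergence treatment used a directed soil spray over seeded loam/sand; postemergence treatment targeted one- to two-leaf plants of 2–10 cm.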

blackgrass = assay: Test A postemergence herbicide test; format: in vivo, Alopecurus myosuroides
In short: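 Visual injury rating, 0 (no effect) to 100 (complete control), versus untreated controls ~10 days after treatment. Postemergence spray applied at one- to two-leaf stage, plants 2–10 cm tall, potted in loam soil/sand. Greenhouse-held.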

galium = assay: Test C pre-/postemergence herbicide test; format: in vivo, Galium aparine; conditions: Preemergence; for Plant response rating (scale of 0 to 100), Galium: 250 g ai/ha
In short: (§1)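 Response scores range from 0, meaning no effect, to 100, meaning complete control, assigned visually by comparison with controls roughly two weeks (13 to 15 days) after spraying. Applications were made preemergence to seeded loam–sand soil and postemergence to 1- to 4-leaf plants.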

foxtail, giant = assay: Test C pre-/postemergence herbicide test; format: in vivo, Setaria faberii
In short: as §1

morningglory = assay: Test C pre-/postemergence herbicide test; format: in vivo, Ipomoea coccinea
In short: as §1

oat, wild = assay: Test C pre-/postemergence herbicide test; format: in vivo, Avena fatua; conditions: Postemergence
Description: Seeds of plant species selected from blackgrass (Alopecurus myosuroides), ryegrass, Italian (Italian ryegrass, Lolium multiflorum), wheat (winter wheat, Triticum aestivum), galium (catchweed bedstraw, Galium aparine), corn (Zea mays), crabgrass, large (large crabgrass, Digitaria sanguinalis), foxtail, giant (giant foxtail, Setaria faberii), johnsongrass (Sorghum halepense), lambsquarters (Chenopodium album), morningglory (Ipomoea coccinea), nutsedge, yellow (yellow nutsedge, Cyperus esculentus), pigweed (Amaranthus retroflexus), ragweed (common ragweed, Ambrosia elatior), soybean (Glycine max), barnyardgrass (Echinochloa crus-galli), oilseed rape (Brassica napus), waterhemp (common waterhemp, Amaranthus rudis), kochia (Kochia scoparia), oat, wild (wild oat, Avena fatua), surinam grass (Brachiaria decumbens), foxtail, green (green foxtail, Setaria viridis), goosegrass (Eleusine indica), bromegrass, downy (downy bromegrass, Bromus tectorum), nightshade (eastern black nightshade, Solanum ptycanthum), cocklebur (common cocklebur, Xanthium strumarium), cupgrass, woolly (woolly cupgrass, Eriochloa villosa), bermudagrass (Cynodon dactylon), sunflower, (common oilseed sunflower, Helianthus annuus), Russian thistle (Salsola kali) and velvetleaf (Abutilon theophrasti) were planted into a blend of loam soil and sand and treated preemergence with test chemicals formulated in a non-phytotoxic solvent mixture which included a surfactant. At the same time, plants selected from these crop and weed species and also barley (winter barley, Hordeum vulgare), […]), chickweed (common chickweed, Stellaria media), deadnettle (henbit deadnettle, Lamium amplexicaule), and canarygrass (littleseed canarygrass, Phalaris minor) were planted in pots containing Redi-Earth® planting medium (Scotts Company, 14111 Scottslawn Road, Marysville, Ohio 43041) comprising spaghnum peat moss, vermiculite, wetting agent and starter nutrients and treated with postemergence applications of test chemicals formulated in the same manner. Plants ranged in height from 2 to 18 cm (1- to 4-leaf stage) for postemergence treatments. Treated plants and controls were maintained in a greenhouse for 13 to 15 days, after which time all species were compared to controls and visually evaluated. Plant response ratings, summarized in Table C, are based on a scale of 0 to 100 where 0 is no effect and 100 is complete control. A dash (-) response means no test result.

[1] = Postemergence, 125 g ai/ha, visual rating on 0 to 100 scale (0 no effect, 100 complete control), approx. 10 days
[2] = Postemergence, 500 g ai/ha, 0 to 100 scale (0 no effect, 100 complete control)
[3] = Preemergence, 125 g ai/ha, 0 to 100 scale where 0 is no effect and 100 is complete control
[4] = Preemergence, 500 g ai/ha, visual rating on 0 to 100 scale (0 no effect, 100 complete control)
[5] = 125 g ai/ha, visual rating on 0 to 100 scale (0 no effect, 100 complete control), approx. 10 days
[6] = 500 g ai/ha, 0 to 100 scale (0 no effect, 100 complete control)
[7] = 31 g ai/ha, scale 0 to 100, 0 is no effect and 100 is complete control
[8] = 62 g ai/ha, scale 0 to 100 (0 no effect, 100 complete control)
[9] = 125 g ai/ha, scale 0 to 100 (0 no effect, 100 complete control)
[10] = Postemergence, 16 g ai/ha, scale 0 to 100 (0 no effect, 100 complete control)
[11] = Postemergence, 31 g ai/ha, scale 0 to 100 (0 no effect, 100 complete control)
[12] = Postemergence, 62 g ai/ha, scale 0 (no effect) to 100 (complete control)
[13] = Postemergence, 125 g ai/ha, scale 0 to 100 (0 no effect, 100 complete control)
[14] = Preemergence, 31 g ai/ha, scale 0 to 100, 0 is no effect and 100 is complete control
[15] = Preemergence, 62 g ai/ha, scale 0 to 100 (0 no effect, 100 complete control)
[16] = Preemergence, 125 g ai/ha, scale 0 to 100 (0 no effect, 100 complete control)
[17] = Preemergence, 16 g ai/ha, scale 0 to 100
[18] = 31 g ai/ha, scale 0 to 100 (0 no effect, 100 complete control)
[19] = 62 g ai/ha, scale 0 (no effect) to 100 (complete control)
[20] = Postemergence, 250 g ai/ha, scale 0 to 100 (0 no effect, 100 complete control)
[21] = Preemergence, 125 g ai/ha, scale 0 to 100
[22] = 250 g ai/ha, scale 0 to 100 (0 no effect, 100 complete control)

CN1CC(c2ccc(C(F)(F)F)cc2)C(C(=O)Nc2ccccc2F)C1=O (stereo not drawn) [Compound 304]
Plant response rating, Pigweed (pigweed; [1]): 40 | Plant response rating, Pigweed (pigweed; [2]): 60 | Plant response rating, Pigweed (pigweed; [3]): 70 | Pigweed plant response rating (pigweed; [4]): 80 | Plant response rating, Blackgrass (blackgrass; [5]): 50 | Plant response rating, Blackgrass (blackgrass; [6]): 70 | Galium plant response rating (galium; [7]): 85 | Galium plant response rating (galium; [8]): 95 | Plant response rating, Galium (galium; [9]): 85 | Plant response rating, Galium (galium; 16 g ai/ha, scale 0 to 100): 100 | Plant response rating, Foxtail, Giant (foxtail, giant; [10]): 0 | Plant response rating, Foxtail, Giant (foxtail, giant; [11]): 0 | Plant response rating, Foxtail, Giant (foxtail, giant; [12]): 10 | Plant response rating, Foxtail, Giant (foxtail, giant; [13]): 45 | Foxtail, Giant plant response rating (foxtail, giant; [14]): 90 | Foxtail, Giant plant response rating (foxtail, giant; [15]): 95 | Plant response rating, Foxtail, Giant (foxtail, giant; [16]): 95 | Plant response rating, Foxtail, Giant (foxtail, giant; [17]): 90 | Plant response rating, Morningglory (morningglory; [10]): 20 | Plant response rating, Morningglory (morningglory; [11]): 50 | Plant response rating, Morningglory (morningglory; [12]): 20 | Plant response rating, Morningglory (morningglory; [13]): 45 | Morningglory plant response rating (morningglory; [14]): 5 | Morningglory plant response rating (morningglory; [15]): 50 | Plant response rating, Morningglory (morningglory; [16]): 40 | Plant response rating, Morningglory (morningglory; [17]): 0 | Plant response rating, Oat, Wild (oat, wild; 16 g ai/ha, scale 0 to 100 (0 no effect, 100 complete control)): 0 | Plant response rating, Oat, Wild (oat, wild; [18]): 0 | Plant response rating, Oat, Wild (oat, wild; [19]): 0 | Plant response rating, Oat, Wild (oat, wild; [9]): 0

O=C1NCC(c2cccc(C(F)(F)F)c2)C1C(=O)Nc1ccc(F)c(F)c1F (stereo not drawn) [Compound 315]
Plant response rating, Pigweed (pigweed; [1]): 30 | Plant response rating, Pigweed (pigweed; [2]): 50 | Plant response rating, Pigweed (pigweed; [3]): 30 | Pigweed plant response rating (pigweed; [4]): 30 | Plant response rating, Blackgrass (blackgrass; [5]): 40 | Plant response rating, Blackgrass (blackgrass; [6]): 50 | Galium plant response rating (galium; [7]): 90 | Galium plant response rating (galium; [8]): 80 | Plant response rating, Galium (galium; 125 g ai/ha, scale 0 to 100): 80 | Plant response rating (scale of 0 to 100), Galium (galium): 90 | Plant response rating, Foxtail, Giant (foxtail, giant; [11]): 0 | Plant response rating, Foxtail, Giant (foxtail, giant; [12]): 40 | Plant response rating, Foxtail, Giant (foxtail, giant; [13]): 85 | Plant response rating, Foxtail, Giant (foxtail, giant; [20]): 85 | Foxtail, Giant plant response rating (foxtail, giant; [14]): 90 | Foxtail, Giant plant response rating (foxtail, giant; [15]): 90 | Plant response rating, Foxtail, Giant (foxtail, giant; [21]): 95 | Plant response rating (scale of 0 to 100), Foxtail, Giant (foxtail, giant; Preemergence, 250 g ai/ha): 98 | Plant response rating, Morningglory (morningglory; [11]): 25 | Plant response rating, Morningglory (morningglory; [12]): 65 | Plant response rating, Morningglory (morningglory; [13]): 35 | Plant response rating, Morningglory (morningglory; [20]): 10 | Morningglory plant response rating (morningglory; [14]): 20 | Morningglory plant response rating (morningglory; [15]): 25 | Plant response rating, Morningglory (morningglory; [21]): 35 | Plant response rating (scale of 0 to 100), Morningglory (morningglory; Preemergence, 250 g ai/ha): 45 | Plant response rating, Oat, Wild (oat, wild; [18]): 0 | Plant response rating, Oat, Wild (oat, wild; [19]): 0 | Plant response rating, Oat, Wild (oat, wild; [9]): 0 | Plant response rating, Oat, Wild (oat, wild; [22]): 0

O=C1NCC(c2cccc(C(F)(F)F)c2)C1C(=O)Nc1cccc(Cl)c1F (stereo not drawn) [Compound 316]
Plant response rating, Pigweed (pigweed; [1]): 0 | Plant response rating, Pigweed (pigweed; [2]): 20 | Plant response rating, Pigweed (pigweed; [3]): 20 | Pigweed plant response rating (pigweed; [4]): 20 | Plant response rating, Blackgrass (blackgrass; [5]): 30 | Plant response rating, Blackgrass (blackgrass; [6]): 40 | Galium plant response rating (galium; [7]): 0 | Galium plant response rating (galium; [8]): 0 | Plant response rating, Galium (galium; 125 g ai/ha, scale 0 to 100): 0 | Plant response rating (scale of 0 to 100), Galium (galium): 90 | Plant response rating, Foxtail, Giant (foxtail, giant; [11]): 5 | Plant response rating, Foxtail, Giant (foxtail, giant; [12]): 5 | Plant response rating, Foxtail, Giant (foxtail, giant; [13]): 85 | Plant response rating, Foxtail, Giant (foxtail, giant; [20]): 85 | Foxtail, Giant plant response rating (foxtail, giant; [14]): 85 | Foxtail, Giant plant response rating (foxtail, giant; [15]): 90 | Plant response rating, Foxtail, Giant (foxtail, giant; [21]): 90 | Plant response rating (scale of 0 to 100), Foxtail, Giant (foxtail, giant; Preemergence, 250 g ai/ha): 95 | Plant response rating, Morningglory (morningglory; [11]): 55 | Plant response rating, Morningglory (morningglory; [12]): 0 | Plant response rating, Morningglory (morningglory; [13]): 10 | Plant response rating, Morningglory (morningglory; [20]): 10 | Morningglory plant response rating (morningglory; [14]): 0 | Morningglory plant response rating (morningglory; [15]): 0 | Plant response rating, Morningglory (morningglory; [21]): 25 | Plant response rating (scale of 0 to 100), Morningglory (morningglory; Preemergence, 250 g ai/ha): 35 | Plant response rating, Oat, Wild (oat, wild; [18]): 0 | Plant response rating, Oat, Wild (oat, wild; [19]): 0 | Plant response rating, Oat, Wild (oat, wild; [9]): 5 | Plant response rating, Oat, Wild (oat, wild; [22]): 30

O=C1NCC(c2cccc(OC(F)F)c2)C1C(=O)Nc1ccc(F)c(F)c1F (stereo not drawn) [Compound 325]
Plant response rating, Pigweed (pigweed; [1]): 40 | Plant response rating, Pigweed (pigweed; [2]): 50 | Plant response rating, Pigweed (pigweed; [3]): 30 | Pigweed plant response rating (pigweed; [4]): 60 | Plant response rating, Blackgrass (blackgrass; [5]): 50 | Plant response rating, Blackgrass (blackgrass; [6]): 50 | Galium plant response rating (galium; [7]): 0 | Galium plant response rating (galium; [8]): 20 | Plant response rating, Galium (galium; 125 g ai/ha, scale 0 to 100): 50 | Plant response rating (scale of 0 to 100), Galium (galium): 80 | Plant response rating, Foxtail, Giant (foxtail, giant; [11]): 0 | Plant response rating, Foxtail, Giant (foxtail, giant; [12]): 35 | Plant response rating, Foxtail, Giant (foxtail, giant; [13]): 65 | Plant response rating, Foxtail, Giant (foxtail, giant; [20]): 75 | Foxtail, Giant plant response rating (foxtail, giant; [14]): 90 | Foxtail, Giant plant response rating (foxtail, giant; [15]): 95 | Plant response rating, Foxtail, Giant (foxtail, giant; [21]): 98 | Plant response rating (scale of 0 to 100), Foxtail, Giant (foxtail, giant; Preemergence, 250 g ai/ha): 95 | Plant response rating, Morningglory (morningglory; [11]): 5 | Plant response rating, Morningglory (morningglory; [12]): 5 | Plant response rating, Morningglory (morningglory; [13]): 35 | Plant response rating, Morningglory (morningglory; [20]): 50 | Morningglory plant response rating (morningglory; [14]): 0 | Morningglory plant response rating (morningglory; [15]): 30 | Plant response rating, Morningglory (morningglory; [21]): 30 | Plant response rating (scale of 0 to 100), Morningglory (morningglory; Preemergence, 250 g ai/ha): 40 | Plant response rating, Oat, Wild (oat, wild; [18]): 0 | Plant response rating, Oat, Wild (oat, wild; [19]): 0 | Plant response rating, Oat, Wild (oat, wild; [9]): 5 | Plant response rating, Oat, Wild (oat, wild; [22]): 15
